Experimental data reported in patent US20070154452A1, “Therapeutic agent for pancreas cancer” (ORIENT CANCER THERAPY, priority 2004, published 2007).
Where a name gives a salt, the structure may show the parent alone.

What was measured:
Assay type in all cases: in vivo, human
IFNγ = IFNγ production of the patients' peripheral blood monocyte fraction (EIA); parameters: dose or concentration left out as unconfirmed; conditions: pancreas cancer, 8 cases, before and after Gemzar for three weeks then a week break, FIG. 3
Method: Firstly, a monocyte fraction is separated from blood for preparation. After heparinized peripheral blood is diluted twofold with Phosphate Buffer Saline (PBS) and mixed, the mixture is overlaid on Ficoll-Conray solution (specific gravity 1.077), centrifuged at […] for 20 minutes to collect a monocyte fraction. After washing it, RPMI-1640 medium added with 10% fetal bovine serum (FBS) is added and prepared such that the cell number becomes 1×10^6. Into 200 μl of the obtained cell suspension, Phytohemagglutinin (supplied by DIFCO) is added into a concentration of 20 μg/ml, then cultured it in a 96-well microplate in the presence of 5% CO2 at 37° C. for 24 hours to obtain a sample for measuring two kinds of cytokines in the cultured cell solution. The measurement of IFNγ was conducted by enzyme immunoassay (EIA method) using […] kit from BioSource Europe S. In practice, into a each well of a 96-well microplate, 50 μl of standard or the twofold dilution of prepared sample described above was dispensed, then 50 μl of anti-IFNγ antibody labeled with HRP was dispensed, and further allowed to react for 2 hours at room temperature with shaking. […] The amount of IFNγ is expressed as IU/ml.

Th1/Th2 = Th1/Th2 before and after administration of Gemzar; conditions: pancreas cancer, 8 cases, before and after Gemzar 1000 mg/mm^2 for three weeks then a week break, FIG. 3
From the text: Gemcitabine hydrochloride (Gemzar™) is an anticancer agent developed by Eli Lilly and Company. This Gemzar was approved to apply for insurance for pancreas cancer in April in 2001. […] Inhibitory effects were also not observed in the ratios of NK cells (8 cases), perforin-producing NK cells (8 cases), NKT cells (8 cases) and perforin-producing NKT cells (8 cases) to total lymphocytes (FIG. 4).

IL-12 = IL-12 production of the patients' peripheral blood monocyte fraction (ELISA); conditions: pancreas cancer, 8 cases, before and after Gemzar 1000 mg/mm^2 for three weeks then a week break, FIG. 3
Method: Firstly, a monocyte fraction is separated from blood for preparation. After heparinized peripheral blood is diluted twofold with Phosphate Buffer Saline (PBS) and mixed, the mixture is overlaid on Ficoll-Conray solution (specific gravity 1.077), centrifuged at […] for 20 minutes to collect a monocyte fraction. After washing it, RPMI-1640 medium added with 10% fetal bovine serum (FBS) is added and prepared such that the cell number becomes 1×10^6. Into 200 μl of the obtained cell suspension, Phytohemagglutinin (supplied by DIFCO) is added into a concentration of 20 μg/ml, then cultured it in a 96-well microplate in the presence of 5% CO2 at 37° C. for 24 hours to obtain a sample for measuring two kinds of cytokines in the cultured cell solution. To measure the amount of IL-12, a measuring kit based on enzyme immunoassay (ELISA) available from, for example, R&D SYSTEMS and MBL is used, though well known clinical and biochemical examinations can be used. Herein, a measuring kit supplied by R&D SYSTEMS was used. In practice, into each well of a 96-well microplate, 50 μl of measuring diluent of Assay Diluent RD1F, and 200 μl of standard or sample prepared from the preparation method for measuring cytokines described above were dispensed, and then allowed it to stand and react at room temperature for 2 hours. […] The amount of IL-12 is expressed as pg/ml. […]

NK cells and NKT cells = assay: Ratios of NK, NKT and perforin-producing cells to total lymphocytes (flow cytometry); conditions: pancreas cancer, 8 cases, before and after Gemzar, FIG. 4
Method: The measurement of NKT cells having NKR-P1 can be conducted by measuring cell surface antigens (CD3 and CD161 ) which are specifically presented on the NKT cell surface. In particular, lymphocytes in peripheral blood are tested for cells of CD3 positive and CD161 positive [CD3 (+) and CD161 (+)]. Thus, CD3 and CD161 which are cell surface antigens on NKT cell are measured by Two Color assay which uses monoclonal antibodies and flow cytometry. Here, activated NKT cells mean that the ratio of NKT [CD3 (+) and CD161 (+)] cells in lymphocytes is 10% or more, and more preferably 16% or more. The ability of activating NKT cell means the function which can increase NKT cell ratio by 10% or more, and more preferably 16% or more, or which can further increase NKT cell ratio more than that before administering a certain substance. Likewise, [CD3 (−) and CD161 (+) ] means to assay for CD3 negative and CD161 positive cells. This method is useful in measurement of NK cells. In addition, CD8 (+) means to assay for CD8 positive cells. This method is useful in measurement of CTL activity. In the Examples, bloods from cancer patients were used, and cells in blood were separated into positive and negative for cell surface antigens, CD3, CD161 and CD8, and each cell ratio was measured by Two Color assay using flow cytometry following a conventional manner. At this time, monoclonal antibodies used against CD3 , CD161 and CD8 were supplied by Coulter or Becton & Dickinson respectively. For lymphocytes in peripheral blood, two of CD3 , CD161 and CD8 of cell surface antigens and perforin are measured by Three Color assay using flow cytometry following a conventional manner. Specifically, into a collected blood, a fixative solution is added to fix cells, then after adding a membrane permeabilizer, an anti-perforin antibody (supplied by Pharmingen) is added for reaction, further secondary antibody labeled with PRE-Cy5 (from DAKO) is added for reaction, then anti-CD3-PE (Coulter 6604627) antibody and anti-CD161-FITC (B-D) antibody are added for reaction, thereafter subjected to measurement by flow cytometry. They were abbreviated as P or PER in figures and tables.

Nc1ccn([C@@H]2O[C@H](CO)[C@@H](O)C2(F)F)c(=O)n1 [Gemzar, gemcitabine hydrochloride]
not observed: effects inhibiting cytokines: IFNγ (IFNγ) | effects inhibiting cytokines: Th1/Th2 (Th1/Th2) | effects inhibiting cytokines: IL-12 (IL-12) | inhibitory effects on ratio of NK cells to total lymphocytes (NK cells and NKT cells) | inhibitory effects on ratio of NKT cells to total lymphocytes (NK cells and NKT cells) | inhibitory effects on ratio of perforin-producing NK cells to total lymphocytes (NK cells and NKT cells) | inhibitory effects on ratio of perforin-producing NKT cells to total lymphocytes (NK cells and NKT cells)
